ChEMBL document CHEMBL4699652, “Proline Hinged Amphipathic α-Helical Peptide Sensitizes Gram-Negative Bacteria to Various Gram-Positive Antibiotics” (J Med Chem, 2020)
Active and inactive are the calls of the source. The rule behind the calls is not given here.

Experiments:
Acinetobacter baumannii [1] = test: Sensitization of rifampicin-induced antimicrobial activity against Acinetobacter baumannii OXA infected in mouse skin infection model assessed as reduction in skin ulcer at 7.5 mg/kg, sc TID for 5 days co-treated with 20 ug/kg, sc rifampicin; type: functional, organism-based; details: time 5.0 day
Escherichia coli [2] = test: Antimicrobial activity against Escherichia coli ATCC 25922 assessed as inhibition of bacterial growth incubated for 18 hrs by CLSI based method; type: functional
Erythrocyte = test: Hemolytic activity in human red blood cells assessed as induction of hemoglobin release incubated for 4 hrs by microplate reader based assay; type: cell-based
Escherichia coli [3] = test: Sensitization of rifampicin-induced antimicrobial activity against Escherichia coli ATCC 25922 assessed as inhibition of bacterial growth at 4 to 8 ug/ml incubated for 18 hrs by CLSI based method; type: functional; details: dose microg/ml 4-8
Escherichia coli [4] = test: Sensitization of linezolid-induced antimicrobial activity against Cst-resistant Escherichia coli isolates assessed as inhibition of bacterial growth at 8 ug/ml incubated for 18 hrs by CLSI based method; type: functional, organism-based; details: dose 8.0 µg/ml
Escherichia coli [5] = test: Sensitization of clarithromycin-induced antimicrobial activity against Cst-resistant Escherichia coli isolates assessed as inhibition of bacterial growth at 8 ug/ml incubated for 18 hrs by CLSI based method; type: functional, organism-based; details: dose 8.0 µg/ml
Staphylococcus aureus = test: Sensitization of rifampicin-induced antimicrobial activity against methicillin-resistant Staphylococcus aureus assessed as inhibition of bacterial growth at 8 ug/ml incubated for 18 hrs by CLSI based method; type: functional, organism-based; details: dose 8.0 µg/ml
[6] = Drug uptake in Escherichia coli at 1 uM incubated for 4 hrs using TAMRA-labeled compound; type: ADME
[7] = Drug localization in membrane of Escherichia coli at 1 uM incubated for 4 hrs using TAMRA-labeled compound; type: ADME, cell membranes, Cell membrane
[8] = Drug localization in cytosol of Escherichia coli at 1 uM incubated for 4 hrs using TAMRA-labeled compound; type: ADME, subcellular
[9] = Induction of cell membrane permeability in POPE/POPG assessed as calcein leakage at 2 to 8 uM; details: dose microM 2-8
Cell membrane [10] = test: Induction of inner membrane permeability in Escherichia coli at 5 uM incubated for 1 hr by SYTOX Green-staining based flow cytometry analysis; type: subcellular
Cell membrane [11] = test: Induction of outer membrane re-arragenemnts in Escherichia coli ATCC 25922 incubated for 4 mins by NPN uptake assay; type: subcellular
Lipopolysaccharide (LPS) [12] = test: Binding affinity to LPS in Escherichia coli D21 assessed as localization in membrane regions at 1 uM using TAMRA-labeled compound by confocal fluorescence microscopy
Lipopolysaccharide (LPS) [13] = test: Binding affinity to LPS in Escherichia coli D21e19 assessed as localization in membrane regions at 1 uM using TAMRA-labeled compound by confocal fluorescence microscopy
Lipopolysaccharide (LPS) [14] = test: Binding affinity to LPS in Escherichia coli D21e7 assessed as localization in membrane regions at 1 uM using TAMRA-labeled compound by confocal fluorescence microscopy
Lipopolysaccharide (LPS) [15] = test: Binding affinity to LPS in Escherichia coli D21f1 assessed as localization in membrane regions at 1 uM using TAMRA-labeled compound by confocal fluorescence microscopy
Lipopolysaccharide (LPS) [16] = test: Binding affinity to LPS in Escherichia coli D21f2 assessed as localization in membrane regions at 1 uM using TAMRA-labeled compound by confocal fluorescence microscopy
Lipopolysaccharide (LPS) [17] = test: Binding affinity to inner core/lipid A region of LPS in Escherichia coli ATCC 25922 at 1.25 uM incubated for 10 mins by protein-retention expansion microscopy
Lipopolysaccharide (LPS) [18] = test: Binding affinity to Escherichia coli LPS in POPE/POPG lipid layers containing wild-type LPS by SPR assay
Lipopolysaccharide (LPS) [19] = test: Binding affinity to O-antigen-deficient Escherichia coli LPS in POPE/POPG lipid layers containing O-antigen-deficient LPS by SPR assay
Escherichia coli [20] = test: Binding affinity to outer membrane in POPE/POPG lipid layers containing LPS by SPR assay
Escherichia coli [21] = test: Binding affinity to inner membrane using POPE/POPG (7/3) by SPR assay
Cell membrane [22] = test: Induction of cell membrane fluidity changes in Escherichia coli ATCC 25922 by Laurdan-dye based fluorescence assay; type: subcellular
Cell membrane [23] = test: Induction of cell membrane fluidity changes in Escherichia coli D21f2 by Laurdan-dye based fluorescence assay; type: subcellular
Escherichia coli [24] = test: Antimicrobial activity against Escherichia coli ATCC 25922 assessed as reduction in cell viability at 10 to 10000 uM by propidium iodide staining based assay; type: functional, organism-based; details: dose microM 10-10000
Escherichia coli [25] = test: Sensitization of colistin-induced antimicrobial activity against NDM-1 producing carbapenem-resistant Escherichia coli infected in ICR CD1 mouse model of sepsis protection model assessed as increase in mouse survival at 12.5 mg/kg, sc QD for 1 days co-treated with 40 mg/kg, sc QD colistin; type: functional; details: time 1 day
Pseudomonas aeruginosa [26] = test: Sensitization of colistin-induced antimicrobial activity against multidrug-resistant Pseudomonas aeruginosa infected in ICR CD1 mouse model of sepsis protection model assessed as increase in mouse survival at 25 mg/kg, sc QD for 1 days co-treated with 40 mg/kg, sc QD colistin; type: functional; details: time 1 day
Escherichia coli [27] = test: Antimicrobial activity against NDM-1 producing carbapenem-resistant Escherichia coli infected in ICR CD1 mouse model of sepsis protection model assessed as increase in mouse survival at 40 mg/kg, sc QD; type: functional, organism-based
Pseudomonas aeruginosa [28] = test: Antimicrobial activity against multidrug-resistant Pseudomonas aeruginosa infected in ICR CD1 mouse model of sepsis protection model assessed as increase in mouse survival at 40 mg/kg, sc QD; type: functional, organism-based
Escherichia coli [29] = test: Sensitization of rifampicin-induced antimicrobial activity against Escherichia coli ATCC 25922 infected in ICR CD1 mouse model of sepsis protection model assessed as mouse survival at 30 mg/kg, ip q1h x 8 hrs for 1 days co-treated with 5 mg/kg, sc q4h x 8 hrs rifampicin; type: functional; details: ATCC 25922, 24 h, time 1 day
Escherichia coli [30] = test: Sensitization of linezolid-induced antimicrobial activity against Escherichia coli ATCC 25922 infected in ICR CD1 mouse model of sepsis protection model assessed as mouse survival at 30 mg/kg, ip q1h x 8 hrs for 1 days co-treated with 25 mg/kg, sc q4h x 8 hrs linezolid; type: functional; details: ATCC 25922, 24 h, time 1 day
Escherichia coli [31] = test: Sensitization of rifampicin-induced antimicrobial activity against Escherichia coli ATCC 25922 infected in ICR CD1 mouse neutropenic thigh infection model assessed as reduction in bacterial CFU at 240 mg/kg, ip q1h x 8 hrs co-treated with 20 mg/kg, sc q4h x 8 hrs rifampicin; type: functional, organism-based
Escherichia coli [32] = test: Sensitization of linezolid-induced antimicrobial activity against Escherichia coli ATCC 25922 infected in ICR CD1 mouse neutropenic thigh infection model assessed as reduction in bacterial CFU at 150 mg/kg, ip q2h x 4 hrs co-treated with 150 mg/kg, sc q2h x 4 hrs linezolid; type: functional, organism-based
Acinetobacter baumannii [33] = test: Sensitization of linezolid-induced antimicrobial activity against Acinetobacter baumannii OXA infected in mouse skin infection model assessed as reduction in skin ulcer at 7.5 mg/kg, sc TID for 5 days co-treated with 3.1 mg/kg, sc linezolid; type: functional, organism-based; details: time 5.0 day

## Ac-KLLKLLKKPLKLLK-NH2
Acinetobacter baumannii [1]
  Activity: Active
Escherichia coli [2]
  MIC: > 80 µM
Erythrocyte
  HC10: > 1280 µM
Escherichia coli [3]
  fold change (FC): <=212
Escherichia coli [4]
  Activity: Active
Escherichia coli [5]
  Activity: Active
Staphylococcus aureus
  Activity: Active
[6]
  Drug uptake: Active
[7]
  Drug uptake: Active
[8]
  Drug uptake: Not Active
[9]
  Activity: inactive
Cell membrane [10]
  Activity: inactive
Cell membrane [11]
  Activity: Active
Lipopolysaccharide (LPS) [12]
  Activity: Active
Lipopolysaccharide (LPS) [13]
  Activity: Active
Lipopolysaccharide (LPS) [14]
  Activity: Active
Lipopolysaccharide (LPS) [15]
  Activity: Active
Lipopolysaccharide (LPS) [16]
  Activity: Active
Lipopolysaccharide (LPS) [17]
  Activity: Active
Lipopolysaccharide (LPS) [18]
  Activity: Active
Lipopolysaccharide (LPS) [19]
  Activity: Active
Escherichia coli [20]
  Activity: inactive
Escherichia coli [21]
  Activity: Active
Cell membrane [22]
  Activity: Dose-dependent effect
Cell membrane [23]
  Activity: inactive
Escherichia coli [24]
  Activity: inactive
Escherichia coli [25]
  Activity: 75%
Pseudomonas aeruginosa [26]
  Activity: 75%
Escherichia coli [27]
  Activity: inactive
Pseudomonas aeruginosa [28]
  Activity: inactive
Escherichia coli [29]
  survival at 30 mg/kg: 90%
Escherichia coli [30]
  survival at 30 mg/kg: 90%
Escherichia coli [31]
  Activity: Active
Escherichia coli [32]
  Activity: Active
Acinetobacter baumannii [33]
  Activity: Active
